Laboratory results taken from publication PMC5846726, “Characterization of the Mel1c melatoninergic receptor in platypus (Ornithorhynchus anatinus)” (PLoS ONE, 2018).

The compounds below were run against T1, Platypus Mel1C (Ornithorhynchus anatinus, UniProt A0A2P1K6N2) (assay: 2-[125I]-iodomelatonin competition binding, membranes from stably transfected CHO cells, platypus Mel1c). Conditions: membranes from stably transfected CHO cells; radioligand 2-[125I]-iodomelatonin; read-out: Platypus Mel1C (converted).
T1 sequence (A0A2P1K6N2 1-349): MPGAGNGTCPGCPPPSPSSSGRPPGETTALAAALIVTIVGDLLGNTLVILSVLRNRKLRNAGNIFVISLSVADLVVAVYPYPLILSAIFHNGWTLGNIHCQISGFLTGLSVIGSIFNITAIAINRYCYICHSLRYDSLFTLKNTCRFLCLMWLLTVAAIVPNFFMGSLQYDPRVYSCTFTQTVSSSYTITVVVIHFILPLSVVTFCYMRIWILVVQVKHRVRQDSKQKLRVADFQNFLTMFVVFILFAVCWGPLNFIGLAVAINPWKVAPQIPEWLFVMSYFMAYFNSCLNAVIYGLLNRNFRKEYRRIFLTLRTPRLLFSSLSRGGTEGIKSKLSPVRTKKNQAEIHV
Experimental: (§1) CHO-Flp-In cells (Thermo Fisher Scientific, Waltham, USA) were cultivated in the presence of zeocin (0.1 mg/ml). The cells were cotransfected with either platypus (cloned sequence that will be submitted to GenBank) Mel1c/pcDNA5-FRT (platypus Mel1c) or X. laevis (NM 001087919.1) Mel1c/pcDNA5-FRT (clawed frog Mel1c) and Flp recombinase expression pOG44 plasmid using PEIpro (Invitrogen, Carlsbad, CA). CHO cells stably expressing platypus Mel1c or clawed frog Mel1c were selected using hygromycin (0.6 mg/ml). CHO-Flp-In-platypus Mel1c cells were grown in HAM F12 with 2 mM glutamine and supplemented with 10% fetal calf serum. Cells were selected using antibiotic pressure (hygromycin) for 72 h. […] After confirmation of the presence of the transgene, the cells were amplified up to 2 x 10^9 cells. This material was used to prepare the cell membranes used in further pharmacological experiments.
(§2) This standard procedure was described in a previous experiment with CHO cells expressing the sheep MT2 receptor [23]. […] The resulting pellet was suspended in 5 mM Tris/HCl (pH 7.4) containing 2 mM EDTA and homogenized using a Kinematica polytron. The homogenate was then centrifuged (20,000g, 30 min, 4°C) and the resulting pellet suspended in 75 mM Tris/HCl (pH 7.4) containing 2 mM EDTA and 12.5 mM MgCl2. The protein content was determined according to the method of Lowry et al. using the Bio-Rad kit (Bio-Rad SA, Ivry-sur-Seine, France). Aliquots of membrane preparations were stored in binding buffer (50 mM Tris/HCl, pH 7.4 containing 5 mM MgCl2 and 1 mM EDTA) at –80°C until use.
(§3) This approach has been described very often by our laboratory and others. […] The results were expressed as Ki, taking into account the concentration of radioligand used in each experiment. […] The reaction was stopped by rapid filtration through GF/B Unifilters, followed by three successive washes with ice-cold buffer. Data were analyzed by using the program PRISM (GraphPad Software Inc., San Diego, CA). For saturation assays, the density of binding sites (Bmax) and the dissociation constant of the radioligand (KD) were calculated according to the Scatchard method. […] A similar protocol was used when the binding was performed on whole cells, as described by Legros et al.. As per Plos One policy, all the raw data–listings from radioactivity counter are attached as raw files (Supplementary Tables A to M in S1 Data).

Ki [nM] | SMILES
1 | COc1cc2c(CCNC(C)=O)c(I)[nH]c2cc1[N+](=O)[O-] [S27128, N-[2-(2-iodo-5-methoxy-6-nitro-1H-indol-3-yl)ethyl]acetamide]
794 | O=C(NCCc1cccc2ccccc12)C1CCC1 [S20928, (N-[2-(1-naphthyl)ethyl]cyclobutanecarboxamide)]
50.1 | CCc1ccc2scc(CCNC(C)=O)c2c1 [S22153, N-[2-(5-ethylbenzothiophen-3-yl)ethyl]acetamide]

SMILES | Ki [nM]
COc1ccc2cccc(C(CO)CNC(=O)CF)c2c1 (stereo not drawn) [S75436, 2-fluoro-N-[3-hydroxy-2-(7-methoxy-1-naphthyl)propyl]acetamide] | 6.31

Each compound was assayed against T1, Platypus Mel1C (assay: 2-[125I]-iodomelatonin competition binding, transiently transfected COS7 cells, platypus Mel1c). Conditions: COS7 cells transiently transfected with Mel1c gene; radioligand 2-[125I]-iodomelatonin; two transfections, triplicate.
Experimental: (§4) COS7 cells obtained from the American Type Culture Collection were maintained in DMEM GlutaMAX (Thermo Fisher Scientific, Waltham, USA) supplemented with 10% (v/v) fetal calf serum. Nucleofection of COS7 cells was performed according to the manufacturer's instructions using the Nucleofector machine (Amaxa, Cologne, Germany). Adherent COS7 cells were washed in phosphate-buffered saline (PBS), trypsinized, and gently resuspended in V nucleofection solution to a final concentration of 7 × 10^6 cells/100 μl. Next, 5 μg of pCIneo/Mel1c vector was mixed with 100 μl of the COS7 cell suspension, transferred to a […] electroporation cuvette, and nucleofected using program A024 and an Amaxa Nucleofector apparatus. Just after the nucleofection, 500 μl of media supplemented with 20% (v/v) fetal calf serum was added to the cell suspension and cultured in a humidified 37°C, 5% CO2 incubator for 20 minutes. Fourteen million cells were transferred to a T225 flask containing 50 ml of media supplemented with 20% (v/v) fetal calf serum and cultured in a humidified 37°C, 5% CO2 incubator. Two days after transfection, the cells were harvested in PBS, pelleted, and stored at -80°C until use.
as §3
(§5) To obtain stable expression of the receptor for future studies, a preliminary step involving transient expression of the receptor was performed. The Mel1c receptors from the three species were expressed in transiently transfected COS7 cells. A limited number of compounds were tested in order to gain a preliminary perception of the characteristics of Mel1c from these species.

pKi Ornithorhyncus anatinus | SMILES
7.6 | CCc1ccc2scc(CCNC(C)=O)c2c1 [S22153, N-[2-(5-ethylbenzothiophen-3-yl)ethyl]acetamide]

These compounds were tested against T2, hMT2 (Homo sapiens, UniProt P49286) (assay: 2-[125I]-iodomelatonin competition binding, human MT2). Conditions: not given.
T2 sequence (P49286 1-362): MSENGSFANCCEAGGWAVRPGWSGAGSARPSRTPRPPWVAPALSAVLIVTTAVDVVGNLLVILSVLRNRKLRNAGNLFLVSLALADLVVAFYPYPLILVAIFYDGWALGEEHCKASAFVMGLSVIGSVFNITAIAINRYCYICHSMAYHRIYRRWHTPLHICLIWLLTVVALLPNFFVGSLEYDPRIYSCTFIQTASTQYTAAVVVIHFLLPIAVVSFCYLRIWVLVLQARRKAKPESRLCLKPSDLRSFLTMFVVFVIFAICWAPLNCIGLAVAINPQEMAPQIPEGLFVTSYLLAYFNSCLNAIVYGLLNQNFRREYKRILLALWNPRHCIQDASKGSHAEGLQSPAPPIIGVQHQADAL
Experimental: as §3

SMILES | Ki [nM]
COc1ccc2cccc(C(CO)CNC(=O)CF)c2c1 (stereo not drawn) [S75436, 2-fluoro-N-[3-hydroxy-2-(7-methoxy-1-naphthyl)propyl]acetamide] | 1.26

Same assay, conditions: membranes from stably transfected CHO cells; radioligand 2-[125I]-iodomelatonin; read-out: hMT2 (converted)

Ki [nM] | SMILES
79.4 | O=C(NCCc1cccc2ccccc12)C1CCC1 [S20928, (N-[2-(1-naphthyl)ethyl]cyclobutanecarboxamide)]
10 | CCc1ccc2scc(CCNC(C)=O)c2c1 [S22153, N-[2-(5-ethylbenzothiophen-3-yl)ethyl]acetamide]

The compounds below were run against T3, X. laevis Mel1c receptor (Xenopus laevis, UniProt P49219) (assay: 2-[125I]-iodomelatonin competition binding, transiently transfected COS7 cells, Xenopus Mel1c). Conditions: COS7 cells transiently transfected with Mel1c gene; radioligand 2-[125I]-iodomelatonin; two transfections, triplicate; read-out: pKi Xenopus laevis (converted).
T3 construct: expressed in transfected cells; host or cells: COS7 (transient nucleofection, pCIneo vector)
T3 sequence (P49219 1-354 isoform P49219-2): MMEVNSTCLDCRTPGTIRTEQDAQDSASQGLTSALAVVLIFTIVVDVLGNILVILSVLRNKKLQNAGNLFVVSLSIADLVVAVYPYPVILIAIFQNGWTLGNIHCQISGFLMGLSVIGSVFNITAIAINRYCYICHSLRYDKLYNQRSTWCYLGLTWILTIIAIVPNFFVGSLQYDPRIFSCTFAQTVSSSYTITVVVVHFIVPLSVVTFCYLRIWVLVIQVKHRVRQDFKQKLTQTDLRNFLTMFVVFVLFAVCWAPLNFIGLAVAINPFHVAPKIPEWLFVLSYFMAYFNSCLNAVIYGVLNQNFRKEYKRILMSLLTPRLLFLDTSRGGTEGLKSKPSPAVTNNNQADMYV
Experimental: as §4, §3, §5

Ki [nM] | SMILES
100 | CCc1ccc2scc(CCNC(C)=O)c2c1 [S22153, N-[2-(5-ethylbenzothiophen-3-yl)ethyl]acetamide]

What follows are compounds tested against T4, Xenopus Mel1C (Xenopus laevis, UniProt P49219) (assay: 2-[125I]-iodomelatonin competition binding, membranes from stably transfected CHO cells, Xenopus Mel1c). Conditions: radioligand 2-[125I]-iodomelatonin.
T4 construct: expressed in transfected cells
T4 sequence (P49219 1-420): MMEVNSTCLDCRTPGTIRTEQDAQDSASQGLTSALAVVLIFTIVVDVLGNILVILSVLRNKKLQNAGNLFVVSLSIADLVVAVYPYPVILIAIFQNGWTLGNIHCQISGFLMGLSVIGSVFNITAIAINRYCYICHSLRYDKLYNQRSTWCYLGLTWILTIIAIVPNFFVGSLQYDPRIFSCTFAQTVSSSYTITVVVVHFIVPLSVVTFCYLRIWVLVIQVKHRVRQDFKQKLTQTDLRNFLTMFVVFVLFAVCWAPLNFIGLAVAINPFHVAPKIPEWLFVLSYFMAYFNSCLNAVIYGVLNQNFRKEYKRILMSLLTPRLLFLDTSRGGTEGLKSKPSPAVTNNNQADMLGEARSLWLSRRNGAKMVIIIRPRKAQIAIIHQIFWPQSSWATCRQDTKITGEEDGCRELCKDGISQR
Experimental: as §1, §2, §3

Ki [nM] | SMILES
2.51 | COc1cc2c(CCNC(C)=O)c(I)[nH]c2cc1[N+](=O)[O-] [S27128, N-[2-(2-iodo-5-methoxy-6-nitro-1H-indol-3-yl)ethyl]acetamide]
1260 | O=C(NCCc1cccc2ccccc12)C1CCC1 [S20928, (N-[2-(1-naphthyl)ethyl]cyclobutanecarboxamide)]
126 | CCc1ccc2scc(CCNC(C)=O)c2c1 [S22153, N-[2-(5-ethylbenzothiophen-3-yl)ethyl]acetamide]

SMILES | Ki [nM]
COc1ccc2cccc(C(CO)CNC(=O)CF)c2c1 (stereo not drawn) [S75436, 2-fluoro-N-[3-hydroxy-2-(7-methoxy-1-naphthyl)propyl]acetamide] | 15.8

The compounds below were run against hMT1 (Homo sapiens, UniProt P48039) (assay: 2-[125I]-iodomelatonin competition binding, human MT1). Conditions: not given.
hMT1, sequence (P48039 whole entry): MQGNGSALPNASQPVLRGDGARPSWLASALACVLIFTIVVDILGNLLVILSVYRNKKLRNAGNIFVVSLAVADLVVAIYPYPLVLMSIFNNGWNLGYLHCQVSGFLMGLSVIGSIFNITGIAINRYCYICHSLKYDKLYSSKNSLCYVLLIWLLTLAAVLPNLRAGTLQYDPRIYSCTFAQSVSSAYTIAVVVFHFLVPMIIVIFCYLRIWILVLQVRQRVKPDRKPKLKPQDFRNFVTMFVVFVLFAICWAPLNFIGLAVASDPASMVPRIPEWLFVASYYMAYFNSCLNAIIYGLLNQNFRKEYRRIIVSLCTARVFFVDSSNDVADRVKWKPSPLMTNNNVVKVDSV
Experimental: as §3

SMILES | Ki [nM]
COc1ccc2cccc(C(CO)CNC(=O)CF)c2c1 (stereo not drawn) [S75436, 2-fluoro-N-[3-hydroxy-2-(7-methoxy-1-naphthyl)propyl]acetamide] | 12.6

Same assay, conditions: membranes from stably transfected CHO cells; radioligand 2-[125I]-iodomelatonin; read-out: hMT1 (converted)

Ki [nM] | SMILES
1.26 | COc1cc2c(CCNC(C)=O)c(I)[nH]c2cc1[N+](=O)[O-] [S27128, N-[2-(2-iodo-5-methoxy-6-nitro-1H-indol-3-yl)ethyl]acetamide]
79.4 | O=C(NCCc1cccc2ccccc12)C1CCC1 [S20928, (N-[2-(1-naphthyl)ethyl]cyclobutanecarboxamide)]
6.31 | CCc1ccc2scc(CCNC(C)=O)c2c1 [S22153, N-[2-(5-ethylbenzothiophen-3-yl)ethyl]acetamide]

What follows are compounds tested against T5, G. gallus Mel1c receptor (Gallus gallus, UniProt P49288) (assay: 2-[125I]-iodomelatonin competition binding, transiently transfected COS7 cells, chicken Mel1c). Conditions: COS7 cells transiently transfected with Mel1c gene; radioligand 2-[125I]-iodomelatonin; two transfections, triplicate; read-out: pKi Gallus gallus (converted).
T5 construct: expressed in transfected cells; host or cells: COS7 (transient nucleofection, pCIneo vector)
T5 sequence (P49288 1-346): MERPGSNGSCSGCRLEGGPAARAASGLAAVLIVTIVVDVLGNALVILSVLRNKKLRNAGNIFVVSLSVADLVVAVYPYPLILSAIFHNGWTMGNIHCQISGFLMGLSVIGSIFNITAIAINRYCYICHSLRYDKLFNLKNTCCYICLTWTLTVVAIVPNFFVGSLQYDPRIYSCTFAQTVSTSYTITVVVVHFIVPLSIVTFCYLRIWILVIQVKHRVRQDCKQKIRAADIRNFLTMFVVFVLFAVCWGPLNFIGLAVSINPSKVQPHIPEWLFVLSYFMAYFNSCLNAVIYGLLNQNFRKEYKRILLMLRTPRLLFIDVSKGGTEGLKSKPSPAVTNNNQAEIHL
Experimental: as §4, §3, §5

Ki [nM] | SMILES
200 | CCc1ccc2scc(CCNC(C)=O)c2c1 [S22153, N-[2-(5-ethylbenzothiophen-3-yl)ethyl]acetamide]
